Assay results taken from patent EP1345943B1, “INHIBITORS OF PAPILLOMA VIRUS” (BOEHRINGER INGELHEIM (CANADA) LTD., priority 2000, dated 2002).

target: E1-E2-DNA complex (Human papillomavirus 11, UniProt P04015); assay: E2-dependent E1 DNA binding assay (E1-E2 DNA assay); conditions: E1-E2 DNA assay of Example 11, HPV-11
Experimental: This particular assay determines the ability of a test compound to inhibit the activity (IC50) of HPV-11 DNA replication. More specifically, in the assay described herein, the inhibitory activity of the test compound is evaluated based on its ability to interfere with the E1-E2-DNA origin of replication interaction, thereby inhibiting initiation of viral DNA replication.
This assay was modeled on a similar assay for SV40 T Antigen described by McKay (J. Mol. Biol., 1981,145:471). A 400bp radiolabeled DNA probe, containing the -HPV-11 origin of replication (Chiang et al.., 1992, Proc. Natl.-Acad. Sci. USA 89:5799) was produced by pcr, using plasmid pBluescript™ SK encoding the origin (nucleotides 7886-61 of the HPV-11 genome in unique BAMH1 site) as template and primers flanking the origin. Radiolabel was incorporated as [33p]dCTP. Binding assay buffer consisted of: 20 mM Tris pH 7.6, 100 mM NaCI, 1 mM DTT, 1 mM EDTA.
Other reagents used were protein A-SPA beads (type II, Amersham) and K72 rabbit polyclonal antiserum, raised against a peptide corresponding to the C-terminal 14 amino acids of HPV-11 E1. Following the protocol from Amersham, one bottle of beads was mixed with 25 mL of binding assay buffer. For the assay, a saturating amount of K72 antiserum was added to the beads and the mixture was incubated for 1 h, washed with one volume of binding assay buffer, and then resuspended in the same volume of fresh binding assay buffer. Binding reactions contained 8 ng of E2, approximately 100-200 ng of purified E1, and 0.4 ng of radiolabeled probe in a total of 80 µL of binding assay buffer. After 1 h at room temperature, 25 µL of K72 antibody-SPA bead suspension was added to with the binding reaction and mixed. After an additional hour of incubation at room temperature, the reactions were centrifuged briefly to pellet the beads and the extent of complex formation was determined by scintillation counting on a Packard TopCount™. Typically, the signal for reactions containing E1 and E2 was 20-30 fold higher than the background observed when either E1, E2, or both was omitted.

Chain of E1-E2-DNA complex (P04015 whole entry, one chain of several): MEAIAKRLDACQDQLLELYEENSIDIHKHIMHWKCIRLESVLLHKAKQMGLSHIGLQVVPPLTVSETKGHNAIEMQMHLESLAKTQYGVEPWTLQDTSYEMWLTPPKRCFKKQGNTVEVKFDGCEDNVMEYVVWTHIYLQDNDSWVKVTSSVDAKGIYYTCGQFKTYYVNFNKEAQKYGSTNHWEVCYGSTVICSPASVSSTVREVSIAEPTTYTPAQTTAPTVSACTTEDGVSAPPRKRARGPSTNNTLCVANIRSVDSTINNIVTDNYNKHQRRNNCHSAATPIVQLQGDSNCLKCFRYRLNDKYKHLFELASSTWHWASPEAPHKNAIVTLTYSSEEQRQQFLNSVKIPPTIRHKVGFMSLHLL

Compound	IC50
COC(=O)C1C(C(=O)Nc2ccc3c(c2)OCO3)C(c2ccc(Cl)c(Cl)c2)OC12C(=O)c1ccccc1C2=O (racemic) [Compound 1022]	0.5 to 5 µM
COc1cccc(C2OC3(C(=O)c4ccccc4C3=O)C(C(=O)O)C2C(=O)Nc2ccc3c(c2)OCO3)c1 (racemic) [Compound 1023]	5 to 50 µM
CC(=O)c1ccc(NC(=O)C2C(c3ccc(Br)c(Br)c3)OC3(C(=O)c4ccccc4C3=O)C2C(=O)O)cc1 (racemic) [Compound 1027]	< 0.5 µM
CC(=O)c1ccc(NC(=O)C2C(c3ccc(Cl)c(Cl)c3)OC3(C(=O)c4ccccc4C3=O)C2C(=O)O)cc1 (racemic) [Compound 1047]	0.5 to 5 µM
Cc1ccc(NC(=O)C2C(c3ccc(Br)c(Br)c3)OC3(C(=O)c4ccccc4C3=O)C2C(=O)O)cc1 (racemic) [Compound 1072]	< 0.5 µM
O=C(Nc1ccccc1)C1C(c2ccc(Br)c(Br)c2)OC2(C(=O)c3ccccc3C2=O)C1C(=O)O (racemic) [Compound 1074]	< 0.5 µM
O=C(NN1CCOCC1)C1C(c2ccc(Br)c(Br)c2)OC2(C(=O)c3ccccc3C2=O)C1C(=O)O (racemic) [Compound 1075]	0.5 to 5 µM
O=C(Nc1ccc(-c2csnn2)cc1)C1C(c2ccc(Br)c(Br)c2)OC2(C(=O)c3ccccc3C2=O)C1C(=O)O (racemic) [Compound 1076]	< 0.5 µM
O=C(NCCc1ccccc1)C1C(c2ccc(Cl)c(Cl)c2)OC2(C(=O)c3ccccc3C2=O)C1C(=O)O (racemic) [Compound 1077]	< 0.5 µM
O=C(Nc1ccc(N2CCOCC2)cc1)C1C(c2ccc(Br)c(Br)c2)OC2(C(=O)c3ccccc3C2=O)C1C(=O)O (racemic) [Compound 1078]	< 0.5 µM
O=C(Nc1ccc(Br)c(Cl)c1)C1C(c2ccc(Br)c(Br)c2)OC2(C(=O)c3ccccc3C2=O)C1C(=O)O (racemic) [Compound 1102]	0.5 to 5 µM
O=C1C2C(c3ccc(Cl)c(Cl)c3)OC3(C(=O)c4ccccc4C3=O)C2C(=O)N1c1ccc2c(c1)OCO2 (racemic) [Compound 2013]	0.5 to 5 µM
CC(=O)c1ccc(N2C(=O)C3C(c4ccc(Cl)c(Cl)c4)OC4(C(=O)c5ccccc5C4=O)C3C2=O)cc1 (racemic) [Compound 2016]	0.5 to 5 µM
O=C(Nc1ccc2c(c1)OCO2)C1C(c2cc(Cl)cc(Cl)c2)OC23C(=O)c4ccccc4C2(O)OC(=O)C13 (racemic) [Compound 3001]	0.5 to 5 µM
O=C(NC1CCCCC1)C1C(c2ccc(Cl)cc2)OC23C(=O)c4ccccc4C2(O)OC(=O)C13 (racemic) [Compound 3002]	5 to 50 µM
O=C(NCc1ccccc1)C1C(c2ccc(Cl)cc2)OC23C(=O)c4ccccc4C2(O)OC(=O)C13 (racemic) [Compound 3003]	5 to 50 µM
O=C(Nc1ccc2c(c1)OCO2)C1C(c2ccc(Cl)cc2)OC23C(=O)c4ccccc4C2(O)OC(=O)C13 (racemic) [Compound 3005]	5 to 50 µM
O=C(Nc1ccccc1Cl)C1C(c2ccc(Cl)cc2)OC23C(=O)c4ccccc4C2(O)OC(=O)C13 (racemic) [Compound 3006]	5 to 50 µM
CC(NC(=O)C1C(c2ccc(Cl)c(Cl)c2)OC23C(=O)c4ccccc4C2(O)OC(=O)C13)c1ccccc1 (racemic) [Compound 3007]	5 to 50 µM
[N-]=[N+]=Nc1c(F)c(F)c(CNC(=O)C2C(c3ccc(Cl)c(Cl)c3)OC34C(=O)c5ccccc5C3(O)OC(=O)C24)c(F)c1F (racemic) [Compound 3008]	5 to 50 µM

Compound	IC50
CC(=O)c1ccc(NC(=O)C2C(c3ccc(Cl)c(Cl)c3)OC34C(=O)c5ccccc5C3(O)OC(=O)C24)cc1 (racemic) [Compound 3009]	< 0.5 µM
O=C(NCc1ccccc1)C1C(c2ccc(Cl)c(Cl)c2)OC23C(=O)c4ccccc4C2(O)OC(=O)C13 (racemic) [Compound 3011]	0.5 to 5 µM
CC(=O)c1ccc(NC(=O)C2C(C=C(C)c3ccccc3)OC3(C(=O)c4ccccc4C3=O)C2C(=O)O)cc1 (racemic) [Compound 4008]	5 to 50 µM
CC(=O)c1ccc(NC(=O)C2C(C(C)=Cc3ccccc3)OC3(C(=O)c4ccccc4C3=O)C2C(=O)O)cc1 (racemic) [Compound 4009]	5 to 50 µM
CC(=O)c1ccc(NC(=O)C2C(C(Br)=Cc3ccccc3)OC3(C(=O)c4ccccc4C3=O)C2C(=O)O)cc1 (racemic) [Compound 4012]	5 to 50 µM
O=C(Nc1ccc2c(c1)OCO2)C1C(c2ccc(Cl)c(Cl)c2)OC2(C(=O)c3ccccc3C2=O)C1C(=O)O (racemic) [Compound 5001]	0.5 to 5 µM
COC(=O)C1C(C(=O)Nc2ccc3c(c2)OCO3)C(c2ccc(Cl)c(Cl)c2)OC12C(=O)c1ccccc1C21CO1 (racemic) [Compound 7001]	5 to 50 µM
O=C1C2C(c3ccc(Cl)c(Cl)c3)OC3(C(=O)c4ccccc4C3O)C2C(=O)N1c1ccc2c(c1)OCO2 (racemic) [Compound 9001]	5 to 50 µM
O=C(NC1CC1c1ccccc1)C1C(c2ccc(Br)c(Br)c2)OC2(C(=O)c3ccccc3C2=O)C1C(=O)O (single isomer, unassigned) [Compound 1088]	0.5 to 5 µM
O=C(NC1CC1c1ccccc1)C1C(c2ccc(Br)c(Br)c2)OC2(C(=O)c3ccccc3C2=O)C1C(=O)O (single isomer, unassigned) [Compound 1089]	< 0.5 µM
O=C(Nc1ccc(-c2csnn2)cc1)C1C(c2ccc(Br)c(Br)c2)OC2(C(=O)c3ccccc3C2=O)C1C(=O)O (single isomer, unassigned) [Compound A1001]	5 to 50 µM
O=C(Nc1ccc(-c2csnn2)cc1)C1C(c2ccc(Br)c(Br)c2)OC2(C(=O)c3ccccc3C2=O)C1C(=O)O (single isomer, unassigned) [Compound A1002]	< 0.5 µM
Cc1ccc2c(c1)C(=O)C1(OC(c3ccc(Cl)c(Cl)c3)C(C(=O)Nc3ccc4c(c3)OCO4)C1C(=O)O)C2=O (single isomer, unassigned) [Compound A1003]	5 to 50 µM
Cc1ccc2c(c1)C(=O)C1(OC(c3ccc(Cl)c(Cl)c3)C(C(=O)Nc3ccc4c(c3)OCO4)C1C(=O)O)C2=O (single isomer, unassigned) [Compound A1004]	5 to 50 µM
Cc1ccc2c(c1)C(=O)C1(OC(c3ccc(Cl)c(Cl)c3)C(C(=O)Nc3ccc4c(c3)OCO4)C1C(=O)O)C2=O (single isomer, unassigned) [Compound A1005]	< 0.5 µM
Cc1ccc2c(c1)C(=O)C1(OC(c3ccc(Br)c(Br)c3)C(C(=O)Nc3ccc(-c4csnn4)cc3)C1C(=O)O)C2=O (single isomer, unassigned) [Compound A1010]	0.5 to 5 µM
Cc1ccc2c(c1)C(=O)C1(OC(c3ccc(Br)c(Br)c3)C(C(=O)Nc3ccc(-c4csnn4)cc3)C1C(=O)O)C2=O (single isomer, unassigned) [Compound A1011]	< 0.5 µM
O=C(Nc1ccc(N2CCOCC2)cc1)C1C(c2ccc(Br)c(Br)c2)OC2(C(=O)c3ccccc3C2=O)C1C(=O)O (single isomer, unassigned) [Compound A1012]	5 to 50 µM
O=C(Nc1ccc(N2CCOCC2)cc1)C1C(c2ccc(Br)c(Br)c2)OC2(C(=O)c3ccccc3C2=O)C1C(=O)O (single isomer, unassigned) [Compound A1013]	< 0.5 µM
Cc1ccc2c(c1)C(=O)C1(OC(c3ccc(Br)c(Br)c3)C(C(=O)Nc3ccc(N4CCOCC4)cc3)C1C(=O)O)C2=O (single isomer, unassigned) [Compound A1014]	< 0.5 µM
